The results in this text go back to patent publication US6984729B1, “Oligonucleotides specific for hepatitis B virus” (priority 1995, dated 2006).

Strand notation (5' to 3'): a small letter for the sugar, then the base; units joined by * are phosphorothioate-linked, units joined directly phosphodiester-linked; [ ] holds rarer units or linkages, { } end groups; capitals alone tell only the bases. d = 2'-deoxy (DNA)

In data set [1] the test system is In vitro transcribed HBV RNA (adw strain). In words: RNase H cleavage assay with contiguous oligodeoxynucleotide phosphorothioates (FIG. 2). The format is biochemical, hepatitis B virus. The note with it: end-labelled HBV RNA (adw), regions found with random 20mer library. The method, then: To determine whether an oligonucleotide of the invention is capable of successfully hybridizing to its target, an RNase H assay was performed (Frank et al. (1993) Proc. Int. Conf. Nucleic Acid Med. Applns. 1:4.14(abstract)). This assay is useful when a region of at least four contiguous nucleotides of the oligonucleotide is DNA and the target is RNA. Hybridization of the DNA portion of the oligonucleotide to the RNA target is identified by cleavage at that site by RNase H.
In vitro transcribed HBV RNA (adw strain) was probed for sites accessible to oligonucleotide hybridization using a randomized library of 20 base oligodeoxynucleotides (approximately […]). Hybridization to the RNA was detected by RNase H cleavage of the end-labelled transcript. Three regions were identified by this assay. One region was in the 5′ untranslated region, between 113 and 70 bases upstream from the core initiator, and two regions were in the coding regionfor core, between 78 and 174 bases downstream from the core initiator. Contiguous oligodeoxynucleotide phosphorothioates were prepared against these regions and their ability to activate RNase H cleavage of the transcript measured.
The plasmid pHBVE+was generated by subcloning a StuI, BamHI fragment from the plasmid pAM6 (ATCC Ac. No. 45020, American Type Culture Collection, Rockville, Md.), representing HBV subtype adw nt 1701-nt 34 (GenBank accession # V00866) (Ono et al. (1983) Nucleic Acids Res. 11:1747–1757), into pBluescript II SK(+) (Stratagene, La Jolla, Calif.). […]
In 9 μl 1× RNase H buffer (40 mM Tris-HCl pH 7.4, 4 mM MgCl2, 1 mM DTT), 20–100 nM labelled RNA and 100 nM oligonucleotides were preincubated for 15 min at 37° C. […] The reactions were quenched and analyzed as described above.
Quantitation of the cleavage products was performed using software supplied with the Phosphorimager (Molecular Dynamics, Sunnyvale, Calif., or Bio-Rad Laboratories, Hercules, Calif.). “Counts” were determined by drawing a box around the band of interest and subtracting the background determined with a box drawn nearby. […]

Data set [2] concerns HBV genomes in the supernatants from HepG2.2.15 cells. Description: Kinetic PCR HBV anti-viral assay on supernatants from HepG2.2.15 cells. The format is cell-based, hepatitis B virus. The note with it: copy number of HBV genomes in HepG2.2.15 supernatants, day 10. The method, then: In addition to Southern hybridizations, kinetic PCR was performed to assay the supernatants from the HepG2.2.15 cells. This procedure was carried out as described by Higuchi et al. (Biotechnol. (1993) 11:1026–1030). All PCRs were carried out with two sets of external controls which consisted of a dilution series of a known concentration of plasmid DNA that contained the HBV core gene amplified with the same primer set. These controls generated a standard curve that was used to calculate the copy number of HBV genomes in the supernatants from cells exposed to the various dilutions of compound.
The anti-viral assay was performed using HepG 2.2.15 cells (Sells et al. ([…]) Proc. Natl. Acad. Sci. (USA) 84:1005–1009) seeded at a density of 1×10^5 per well in 24 well plates. The cells were grown to confluence and allowed to stabilize for 2–3 days in RPMI media (supplemented with 10% fetal calf serum (FCS), 2 mM glutamine and penstrep (Life Technologies Ltd., Paisley, Scotland) prior to the addition of the oligonucleotide (defined as day 0). Six dilutions (10, 5, 1, 0.5, 0.1, and 0 μM) were set up in duplicate for each of the antisense oligonucleotides. In each assay run, the nucleoside analog, β-L-(2R,5S)-1,3 oxathiolanyl cytosine (3TC) (Glaxo, Greenford, U.K.) was included as positive control at 0.5, 0.1, 0.075, 0.05, and 0.01 and 0 μM in duplicate. Oligonucleotide was added to 1 ml of RPMI media (supplemented with 3% FCS, 2 mM glutamine and penstrep) at each of the indicated dilutions. At days 2, 4 and 7, the old media was removed and replaced with fresh media containing compound. At day 10, the supernatants were harvested, clarified by low speed centrifugation, prior to the addition of Triton X100 (Sigma, St. Louis, Mo.) and tri-n-butyl phosphate to give a final concentration of 1%. The samples were then heated to 70° C. for 20 minutes to disrupt the viral particles.
Following this treatment, the viral particles were subject to analysis by kinetic PCR. The primers RJ407 (SEQ ID NO:51) and RJ431 (SEQ ID NO:52) were used to detect a 205 bp fragment of the core gene. Kinetic PCR was performed essentially as described by Higuchi et al. (Biotechnol. (1993) 11:1026–1030). Briefly, the PCR reactions were set up under standard conditions except that ethidium bromide was included at a concentration of 4 μg/ml. […] A kinetic PCR analysis was performed by plotting the average intensity of fluorescence from each PCR sample after each annealing/extension cycle against the cycle number. The original template concentration can be calculated by utilizing a standard fluorescence curve generated by templates of known concentration.

For data set [3], the system named is HBV subtype ayw polymerase gene-luciferase fusion construct. In words: Firefly luciferase reporter gene assay in stably transfected HepG2 cells (pol-luciferase fusion). Type of data set: cell-based. The note with it: versus random 20mer PS negative control, FIG. 9. The method, then:
Oligonucleotides targeted to the polymerase translation initiation region were also tested in mammalian cells using a firefly luciferase reporter gene assay. The 35 nucleotide region spanning the translation start site of the HBV ayw polymerase gene from nt 2294–2328 was cloned 5′ to, and in frame with, the entire open reading frame of the firefly luciferase gene in the plasmid pGLori, to produce the plasmid pGLpol (FIG. 10). Transcription of this pol-luciferase gene fusion was placed under the control of the cytomegalovirus early gene promoter. Expression of the pol-luciferase fusion in mammalian cells was quantified in a luminometer by addition of luciferin substrate and ATP cofactor to cell lysates. In all cellular antisense assays, a random sequence 20mer phosphorothioate oligonucleotide (random 20mer PS) was used as a negative control. […]
Stably transfected HepG2 cells were seeded into 96 well plates. […] Cells were washed twice with Dulbecco's phosphate-buffered saline (PBS) and lysed in 50 μl cell lysis buffer (Analytical Luminescence Laboratory, San Diego, Calif.). Luciferase activity was measured in 20 μl lysate using Analytical Luminescence Laboratory substrates in a MicroLumat LB 96 P luminometer (EG&G Berthold, Nashua, N.H.).
In general terms: Reporter assays use an easily measured gene product as a stand-in for the process of interest.

With “GAAAAAGTTGCATGGTGCTG (antisense dG*dA*dA*dA*dA*dA*dG*dT*dT*dG*dC*dA*dT*dG*dG*dT*dG*dC*dT*dG) [HBV44]”, the “ability to activate RNase H cleavage of the transcript” value (“ability to activate RNase H cleavage” below) in data set [1] is reported as “single peaks of activity”. In data set [2], the half-inhibitory concentration (IC50) (usually the concentration needed to halve the response being measured) is 700 nM.

With “GAGGCGGTGTCTAGGAGATC (antisense dG*dA*dG*dG*dC*dG*dG*dT*dG*dT*dC*dT*dA*dG*dG*dA*dG*dA*dT*dC) [HBV57]”, the “ability to activate RNase H cleavage” value in data set [1] is on record as “single peaks of activity”.

In data set [2], “GAGGTGAAAAAGTTGCATGG (antisense dG*dA*dG*dG*dT*dG*dA*dA*dA*dA*dA*dG*dT*dT*dG*dC*dA*dT*dG*dG) [HBV48]” displayed an IC50 of 700 nM.

Consider “GATAGGGGCATTTGGTGGTC (phosphorothioate, further chemistry not given here) [HBVpol-2]”, for which the “antisense activity on luciferase expression” value in data set [3] is “had sequence-specific antisense activity”. The sequence also had an IC50 in data set [2] of 3700 nM.

With “GCAGTATGGTGAGGTGAGCA (antisense dG*dC*dA*dG*dT*dA*dT*dG*dG*dT*dG*dA*dG*dG*dT*dG*dA*dG*dC*dA) [HBV41]”, the “ability to activate RNase H cleavage” value in data set [1] was “single peaks of activity”.

For “GGCATTTGGTGGTCTATAAG (antisense dG*dG*dC*dA*dT*dT*dT*dG*dG*dT*dG*dG*dT*dC*dT*dA*dT*dA*dA*dG) [HBVpol-1]”, in data set [3], the “antisense activity on luciferase expression” value is “had sequence-specific antisense activity”.

As to “TCGATGTCCATGCCCCAAAG (phosphorothioate, further chemistry not given here) [HBV4]”, half-maximal inhibition in data set [2] (IC50) required 1200 nM.
